Literature values as cited in US11166911B2, “Parenteral dosage form of amiodarone” (SUN PHARMACEUTICAL INDUSTRIES LIMITED, priority 2016, dated 2021).

Conditions: Parmar et al. 1997

Compound: CCCCc1oc2ccccc2c1C(=O)c1cc(I)c(OCCN(CC)CC)c(I)c1 [Amidarone]
- Degradation upon storage at higher temperatures: degrade significantly
